Holding throughout (test): inhibition of tumour cell growth, NCI panel, 48 h
Assay [1] concerns BT-549 breast.
The subject of assay [2] is CAKI-1 renal.
Assay [3] deals with HT29 colon.
Assay [4] has as its system NCI-H522 lung.
Assay [5] concerns COLO 205 colon.
In assay [6] the test system is MOLT-4 leukemia.
Assay [7] has as its system SF-539 CNS.

Several values for one entry are separate records, joined by “and”; a condition that tells them apart may be missing. Identical values can stand only once.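 Briefly, cells in 96-well plates were exposed to five compound concentrations for 48 h, and endpoints were estimated by linear interpolation. At the GI50, growth is halved. TGI: concentration producing complete growth inhibition.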 Where a SMILES comes first, the peptide text is derived from it. [ ]: non-standard residue; d: D form. The star is where a group is joined. Bn2Val = CC(C)[C@@H](C(=O)*)N(Cc1ccccc1)Cc1ccccc1; NMeV = CN[C@H](C(=O)O)C(C)C; X29 = COc1ccc(CN*)c(OC)c1; dNMeA = CN[C@H](C)C(=O)O; Boc = CC(C)(C)OC(=O)*; OBn = c1ccc(CO*)cc1 Where only a bound is given, the exact number is not on record here.

As to `CCOC(=O)C(NC(=O)CC)(Nc1ccc(S(=O)(=O)Nc2onc(C)c2C)cc1)C(F)(F)F` (configuration not stated), the TGI in assay [1], in assay [2], in assay [3], in assay [4], in assay [5] and in assay [6] was above 100 µM throughout. The same compound returned a TGI in assay [7] above 100 µM.
`O=C(Sc1c(-c2ccccc2)c(=O)n(-c2ccccc2)c(=S)n1-c1ccccc1)c1cccs1`: the TGI in assay [1] is above 100 µM; in assay [2], above 100 µM; in assay [3], above 100 µM; in assay [4], above 100 µM; in assay [5], above 100 µM; in assay [6] it was 86 µM.
In the case of `Cc1ccc(S(=O)(=O)NC(=O)NC(CCCCN=C(N)N)C(=O)O)cc1` (configuration not stated), the TGI in assay [1], in assay [4], in assay [5], in assay [6] and in assay [7] was above 100 µM throughout.
In the case of `COc1ccccc1N=Nc1c(O)c(S(=O)(=O)O)cc2cc(S(=O)(=O)O)ccc12`, the TGI in assay [1], in assay [2], in assay [3], in assay [4], in assay [5] and in assay [6] was above 100 µM in each case.
As to `O=C1CC(C(CC(=O)c2ccccc2)c2ccccc2)C(=O)c2ccccc2N1` (configuration not stated), the TGI in assay [1] was above 100 µM; in assay [3], above 100 µM; in assay [5], above 100 µM; in assay [6] it was 61.2 µM; in assay [7] it was above 100 µM.
In the case of `O=S(=O)(O)c1cccc2cccc(N=Nc3c(O)ccc4ccccc34)c12`, the TGI in assay [1], in assay [2], in assay [3], in assay [4], in assay [5] and in assay [6] was above 100 µM each time. This compound also gave a TGI in assay [7] above 100 µM.
`COC(=O)[C@@](C)(COC(=O)C(C)(C)C)NC(=O)OC(C)(C)C`: the TGI in assay [1], in assay [2], in assay [3], in assay [4], in assay [5] and in assay [6] was above 100 µM in each case. Besides, the TGI in assay [7] was above 100 µM.
`CC(=O)OC1C2CCC3C(C)(O)C4CC(O)C(C)(C)C4(O)C(O)CC13CC2(C)O` (configuration not stated): the TGI in assay [1], in assay [2], in assay [3], in assay [4], in assay [5] and in assay [7] was above 100 µM each time.
In the case of `CCOC(=O)c1c(C)nc2c(c1-c1cn(-c3ccccc3)nc1-c1ccccc1)C(=O)c1ccccc1-2`, the TGI in assay [1], in assay [2], in assay [3], in assay [4], in assay [5] and in assay [6] was above 100 µM throughout.
Take `COC(=O)CCc1c(Cc2ccc[nH]2)[nH]c(C(=O)OCc2ccccc2)c1C`: the TGI stood at 64.7 µM in assay [2]; 38.9 µM in assay [3]; 54.4 µM in assay [4]; 32.9 µM in assay [5]; 52.7 µM in assay [6]; 37.5 µM in assay [7].
As for `CC(C)CC(NC(=O)OC(C)(C)C)C(=O)NC(CC(=O)OCc1ccccc1)C(=O)OCc1ccccc1` (stereo not drawn) (Boc-Leu-Asp(OBn)-OBn; configuration not given here), the TGI in assay [1] is above 100 µM; in assay [2], above 100 µM; in assay [3], above 100 µM; in assay [4], 79.2 µM; in assay [5], above 100 µM; in assay [6], 76.9 µM. The compound further registered a TGI in assay [7] of 96.7 µM.
Take `O=[N+]([O-])c1ccc2oc(=Nc3ccccc3)c(Nc3ccccc3)nc2c1`: the TGI in assay [2] is above 100 µM; in assay [3], above 100 µM; in assay [4], 67.2 µM; in assay [5] it was above 100 µM; in assay [6] it was above 100 µM; in assay [7], above 100 µM.
For the compound `CCOc1ccc(N=NC2C(=O)N(C(=O)CC(=O)Nc3ccccc3)N=C2C)cc1` (configuration not stated), the TGI in assay [1], in assay [2], in assay [3], in assay [4], in assay [5] and in assay [6] was above 100 µM each time. In assay [7], the TGI was above 100 µM.
For the compound `C=C1[C@@](C)([C@@H]2CCCS2)[C@H]2C(C)=C[C@]1(C)n1c(=O)n(-c3ccccc3)c(=O)n12`, the TGI in assay [1], in assay [2], in assay [3], in assay [4], in assay [5] and in assay [6] was above 100 µM throughout. The compound also came in with a TGI in assay [7] above 100 µM.
As for `Cc1ccc(-c2nnc(CCCCCCCCc3nnc(-c4ccc(C)cc4O)n3N)n2N)c(O)c1`, the TGI in assay [2], in assay [4], in assay [5], in assay [6] and in assay [7] was above 100 µM each time.
Regarding `C=C(C)C1CC/C(C)=C/CC[C@]2(C)O[C@@H]2CCC2=CC1OC2=O` (some centres not stated), the GI50 in assay [2] is 19 µM; in assay [4], above 100 µM; in assay [5] it was above 100 µM; in assay [6], 12.1 µM. The TGI in assay [2] was 49.1 µM; in assay [4], above 100 µM; in assay [5] it was above 100 µM; in assay [6], 30.6 µM.
In the case of `CS[C@]12[C@@H]3C(=O)N(C)C(=O)[C@@H]3[C@](C)(C(=O)N1C)C(=O)N2c1ccccc1`, the TGI in assay [1], in assay [2], in assay [3], in assay [4], in assay [5] and in assay [6] was above 100 µM each time. Besides, in assay [7], the TGI is above 100 µM.
Take `CC(C)(C)CC(C)(C)NC(=S)NO`: the TGI in assay [2], in assay [3], in assay [4], in assay [5], in assay [6] and in assay [7] was above 100 µM each time.
`CC12CCCCC1=[N+]([O-])C(C)(C)N2O` (configuration not stated): the TGI in assay [2], in assay [3], in assay [5] and in assay [7] was above 100 µM throughout.
In the case of `CCCC1C(=O)Nc2cccc3ncn(c23)C1=O` (configuration not stated), the TGI in assay [1], in assay [2], in assay [3], in assay [5], in assay [6] and in assay [7] was above 100 µM throughout.
Consider `O=C(O)CC[P+](c1ccccc1)(c1ccccc1)c1ccccc1`, for which the TGI was 81.8 µM in assay [1]; above 100 µM in assay [2]; above 100 µM in assay [3]; above 100 µM in assay [4]; 27.4 µM in assay [5]; above 100 µM in assay [6].
On to `C=C[C@@]1(O)CCCC[C@@H]1CC(Sc1ccccc1)Sc1ccccc1`, for which the TGI in assay [2] was 30.1 µM; in assay [3], 36.9 µM; in assay [4], 26.8 µM; in assay [5] it was 32.3 µM; in assay [6], above 100 µM.
For the compound `CC(=O)OC12c3ccccc3C(c3ccccc31)C1C(=O)N(c3ccccn3)C(=O)C12` (configuration not stated), the TGI in assay [1], in assay [2], in assay [3], in assay [5], in assay [6] and in assay [7] was above 100 µM throughout.
In the case of `Cc1nnc2n(c1=O)CCN2C`, the TGI in assay [1], in assay [3], in assay [5], in assay [6] and in assay [7] was above 100 µM each time.
As for `N=C(N)SCCC(=O)CCSC(=N)N`, the TGI in assay [3], in assay [4], in assay [5] and in assay [6] was above 100 µM throughout.
On to `O=C1C=C2CCC[C@H]3OC(=O)C[C@@]23CC1`, for which the TGI in assay [2], in assay [3], in assay [4], in assay [5], in assay [6] and in assay [7] was above 100 µM in each case.
Regarding `Nc1ccc(Nc2cc(=O)[nH]c(=O)[nH]2)cc1`, the TGI in assay [2], in assay [3], in assay [4], in assay [6] and in assay [7] was above 100 µM each time.
As for `COC(=O)C1=C(O)C(C(=O)OC)[C@]2(O)[C@@H](C(=O)OC)[C@H]1C[C@@H](c1ccccc1)[C@@H]2C(=O)OC` (some centres not stated), the TGI in assay [1] worked out at 33.5 µM; in assay [3], 36.7 µM; in assay [4] it was 20.6 µM; in assay [6] it was 55.6 µM; in assay [7] it was 25.5 µM.
Regarding `Cc1ccc(NC2=NCCO2)c2c1CCC2`, the TGI in assay [2] was above 100 µM; in assay [3] it was above 100 µM; in assay [4], above 100 µM; in assay [5] it was 83.6 µM; in assay [6], above 100 µM; in assay [7] it was 56 µM.
`CC1(C)C(CCO)CC1n1ccc(=O)[nH]c1=O` (configuration not stated): the TGI in assay [2] and in assay [7] was above 100 µM in each case.
`Cc1c(OCc2ccccc2)c(=O)ccn1CCc1c[nH]c2ccccc12`: the TGI was above 100 µM in assay [1]; 71.9 µM in assay [3]; 69.4 µM in assay [4]; 32.1 µM in assay [5]; 31.9 µM in assay [6]; above 100 µM in assay [7].
Consider `N#C/C(=C\c1ccc([N+](=O)[O-])s1)c1nc2cc(Cl)ccc2s1`, for which the GI50 was 3.29 µM in assay [3]; 1.18 µM in assay [4]; 1.55 µM in assay [5]; 2.11 µM in assay [6]; 1.21 µM in assay [7]. The TGI in assay [3] is above 100 µM; in assay [4], 3.56 µM; in assay [5] it was 4.06 µM; in assay [6] it was above 100 µM; in assay [7] it was 2.79 µM.
As to `COc1ccc(CNC(=O)[C@@H]2CCCN2C(=O)[C@@H](C)N(C)C(=O)[C@H](C(C)C)N(C)C(=O)[C@@H](NC(=O)[C@H](C(C)C)N(Cc2ccccc2)Cc2ccccc2)C(C)C)c(OC)c1` (Bn2Val-V[NMeV][dNMeA]P-X29), the TGI was 7.72 µM in assay [1]; 15.5 µM in assay [2]; 3.26 µM in assay [3]; 24.2 µM in assay [4]; 5.09 µM in assay [5]; 4.69 µM in assay [7].
For the compound `O=C1CC(C(OCc2ccccc2)C(OCc2ccccc2)C(COCc2ccccc2)OCc2ccccc2)CC(=O)N1` (configuration not stated), the TGI in assay [1] was above 100 µM; in assay [3], above 75 µM; in assay [5] it was above 100 µM; in assay [6], above 100 µM; in assay [7], above 100 µM. In addition, the GI50 in assay [6] was > 100 µM and 37.7 µM.
`Oc1ccccc1C1C=C(c2ccccc2)NC(N2CCCCC2)=C1c1nc2ccccc2[nH]1` (configuration not stated): the TGI was found to be 28.5 µM in assay [1]; 29.3 µM in assay [3]; 27.7 µM in assay [4]; 5.81 µM in assay [5]; 57.6 µM in assay [6]; 29.7 µM in assay [7].
Regarding `Cc1ccc(-n2cc(-c3ccc(Cl)cc3)c3c(NN)ncnc32)cc1`, the TGI in assay [2] was determined as 8.73 µM; in assay [3] it was 19 µM; in assay [4], 15.8 µM; in assay [5] it was 11.2 µM; in assay [6] it was 11.5 µM; in assay [7], 11.3 µM.
As for `OCC(CCc1ccccc1I)C1=CCC2(CC1)OCCO2` (configuration not stated), the TGI is 65.2 µM in assay [2]; 41.6 µM in assay [3]; 30.3 µM in assay [4]; 34.6 µM in assay [5]; above 100 µM in assay [6]; 32.5 µM in assay [7].
As to `[O-][n+]1c(CN2CCCCC2)nc2cccc3c2c1-c1ccccc1-3`, the TGI in assay [1] is above 100 µM; in assay [2], 81.7 µM; in assay [3], 51.8 µM; in assay [5] it was 64.3 µM; in assay [6] it was above 100 µM; in assay [7] it was 88.4 µM.
For `C[N+](C)(C)C=Nc1cccc2c1CCCC2`, the TGI in assay [1], in assay [2], in assay [3], in assay [5], in assay [6] and in assay [7] was above 100 µM each time.
`CCN(CC)CCCNC(=O)c1cc2cc(NC(=O)c3cc4cc([N+](=O)[O-])ccc4[nH]3)ccc2[nH]1`: the TGI in assay [1], in assay [2], in assay [3], in assay [5] and in assay [7] was above 100 µM in each case.

These data come from PubChem BioAssay (NCI).
